From patent US20240100023A1, “Compositions and Methods For Treating Spinal Cord Injuries” (priority 2020, published 2024)

How the values were obtained:
BDNF and NGF mRNAs = assay: BDNF and NGF mRNA prevalence in brain regions (anti-sense cRNA assays); type: in vivo; settings: for NGF message levels in the dentate gyrus granule cell layers: ampakine-stimulated versus vehicle-treated control; for BDNF and NGF mRNAs in layer II of the piriform cortex: systemic, CX516 30 mg/kg/day, CX691 3 mg/kg/day
Description: Ampakines enhanced NGF mRNA somewhat more than that of BDNF.

[1] = test system: fragile X syndrome (FXS) patients; settings: in vivo; cited from earlier work

SMILES | NGF message levels in the dentate gyrus granule cell layers (BDNF and NGF mRNAs) | BDNF and NGF mRNAs in layer II of the piriform cortex (BDNF and NGF mRNAs) | Memory, language use, attention, executive and overall functioning in FXS [1] | Concentration at which seizure activity is seen in hippocampal slices (hippocampal slices)
O=C(c1ccc2nccnc2c1)N1CCCCC1 [CX516] | significantly enhanced | significantly up-regulated | did not exhibit improved memory | 
O=C1c2cc3c(cc2OC2CCCN12)OCCO3 (stereo not drawn) [CX614, reference compound] |  |  |  | 16 µM
O=C(c1ccc2nonc2c1)N1CCCCC1 [CX691] | significantly enhanced | significantly up-regulated |  | 
